This passage reports EC50 results from patent US9499550B2 (BRISTOL-MYERS SQUIBB COMPANY, priority 2012, dated 2016).

Structures are written as SMILES. Like-named read-outs stand apart in the source and are kept apart here.

The test system of experiment [1] is HCV genotype 1b (Con1) replicon in HUH-7 cells. Briefly: HCV replicon luciferase reporter assay, genotype 1b. The class given is cell-based. The note with it: Hepatitis C virus, Huh-7, 72 h, HCV genotype 1b replicon luciferase, 3 days incubation. The gist of the method:
(§1)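 Replicon inhibition for both genotypes was measured as Renilla luciferase signal (EnduRen, 7.5 μM final, 2 h) after 3-day, 37° C exposure of replicon-bearing HUH-7 cells in 4% FCS DMEM, 0.5% DMSO. The 1b construct carries S1179I; the 1a H77 construct carries P1496L and S2204I. Twenty-point, 3-fold dilutions were fitted four-parametrically for EC50, and CC50 was taken from multiplexed Cell Titer-Blue.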
For orientation: Replicon systems follow genome replication, usually without infectious particles.

The test system of experiment [2] is HCV genotype 1a (H77 strain) replicon in HUH-7 cells. Briefly: HCV replicon luciferase reporter assay, genotype 1a. The class given is cell-based. As to conditions: Hepatitis C virus, Huh-7, 72 h, HCV genotype 1a replicon luciferase, 3 days incubation. The gist of the method: as §1

`[2H]C([2H])([2H])C(C)(OC(=O)N[C@@H]1C(=O)N2C[C@H](Oc3nccc4c5c(ccc34)N(C)CCO5)C[C@H]2C(=O)N[C@]2(C(=O)NS(=O)(=O)C3CC3)C[C@H]2/C=C\CC[C@@H](C)C[C@H]1C)C([2H])([2H])[2H]` [Compound 5286, 1,1,1,3,3,3-hexadeutero-2-methylpropan-2-yl((2R,6S,7R,9R,13aS,14aR,16aS,Z)-14a-((cyclopropylsulfonyl)carbamoyl)-7,9-dimethyl-2-((4-methyl-3,4-dihydro-2H-[1,4]oxazino[2,3-f]isoquinolin-7-yl)oxy)-5,16-dioxo-1,2,3,5,6,7,8,9,10,11,13a,14,14a,15,16,16a-hexadecahydrocyclopropa[e]pyrrolo[1,2-a][1,4]diazacyclopentadecin-6-yl)carbamate]: the EC50 in experiment [1] (read-out: LE_1b (EC50, range)) is less than 5.46 nM; in experiment [2] (read-out: LE_1a (EC50, range)) it was less than 5.46 nM.
As to `[2H]C([2H])([2H])C(OC(=O)N[C@@H]1C(=O)N2C[C@H](Oc3nccc4c5c(ccc34)N(C)CCO5)C[C@H]2C(=O)N[C@]2(C(=O)NS(=O)(=O)C3CC3)C[C@H]2/C=C\CC[C@H](C)C[C@H]1C)(C([2H])([2H])[2H])C([2H])([2H])[2H]` [Compound 5287, 1,1,1,3,3,3-hexadeutero-2-(trideuteromethyl)propan-2-yl((2R,6S,7R,9S,13aS,14aR,16aS,Z)-14a-((cyclopropylsulfonyl)carbamoyl)-7,9-dimethyl-2-((4-methyl-3,4-dihydro-2H-[1,4]oxazino[2,3-f]isoquinolin-7-yl)oxy)-5,16-dioxo-1,2,3,5,6,7,8,9,10,11,13a,14,14a,15,16,16a-hexadecahydrocyclopropa[e]pyrrolo[1,2-a][1,4]diazacyclopentadecin-6-yl)carbamate], the EC50 in experiment [1] (read-out: LE_1b (EC50, range)) is less than 5.46 nM; in experiment [2] (read-out: LE_1a (EC50, range)), less than 5.46 nM.
As for `[2H]C([2H])([2H])C(OC(=O)N[C@@H]1C(=O)N2C[C@H](Oc3nccc4c5c(ccc34)N(C)CCO5)C[C@H]2C(=O)N[C@]2(C(=O)NS(=O)(=O)C3CC3)C[C@H]2/C=C\CC[C@@H](C)C[C@H]1C)(C([2H])([2H])[2H])C([2H])([2H])[2H]` [Compound 5288, 1,1,1,3,3,3-hexadeutero-2-(trideuteromethyl)propan-2-yl((2R,6S,7R,9R,13aS,14aR,16aS,Z)-14a-((cyclopropylsulfonyl)carbamoyl)-7,9-dimethyl-2-((4-methyl-3,4-dihydro-2H-[1,4]oxazino[2,3-f]isoquinolin-7-yl)oxy)-5,16-dioxo-1,2,3,5,6,7,8,9,10,11,13a,14,14a,15,16,16a-hexadecahydrocyclopropa[e]pyrrolo[1,2-a][1,4]diazacyclopentadecin-6-yl)carbamate], the EC50 is less than 5.46 nM in experiment [1] (read-out: LE_1b (EC50, range)) and less than 5.46 nM in experiment [2] (read-out: LE_1a (EC50, range)).
With `C[C@H]1CC/C=C\[C@@H]2C[C@@]2(C(=O)NS(=O)(=O)C2CC2)NC(=O)[C@@H]2C[C@@H](Oc3nccc4c5c(ccc34)N(C)CCO5)CN2C(=O)[C@@H](NC(=O)c2ccc(N(C)C)cc2)[C@H](C)C1` [Compound 5289, (2R,6S,7R,9S,13aS,14aR,16aS,Z)—N-(cyclopropylsulfonyl)-6-(4-(dimethylamino)benzamido)-7,9-dimethyl-2-((4-methyl-3,4-dihydro-2H-[1,4]oxazino[2,3-f]isoquinolin-7-yl)oxy)-5,16-dioxo-1,2,3,5,6,7,8,9,10,11,13a,14,14a,15,16,16a-hexadecahydrocyclopropa[e]pyrrolo[1,2-a][1,4]diazacyclopentadecine-14a-carboxamide], the EC50 is less than 5.46 nM in experiment [1] (read-out: LE_1b (EC50, range)) and 4.82 to 103 nM in experiment [2] (read-out: LE_1a (EC50, range)).
As to `C[C@@H]1CC/C=C\[C@@H]2C[C@@]2(C(=O)NS(=O)(=O)C2CC2)NC(=O)[C@@H]2C[C@@H](Oc3nccc4c5c(ccc34)N(C)CCO5)CN2C(=O)[C@@H](NC(=O)c2ccc(N(C)C)cc2)[C@H](C)C1` [Compound 5290, (2R,6S,7R,9R,13aS,14aR,16aS,Z)—N-(cyclopropylsulfonyl)-6-(4-(dimethylamino)benzamido)-7,9-dimethyl-2-((4-methyl-3,4-dihydro-2H-[1,4]oxazino[2,3-f]isoquinolin-7-yl)oxy)-5,16-dioxo-1,2,3,5,6,7,8,9,10,11,13a,14,14a,15,16,16a-hexadecahydrocyclopropa[e]pyrrolo[1,2-a][1,4]diazacyclopentadecine-14a-carboxamide], the EC50 in experiment [1] (read-out: LE_1b (EC50)) was 0.64 nM; in experiment [1] (read-out: LE_1b (EC50, range)), less than 5.46 nM; in experiment [2] (read-out: LE_1a (EC50)), 1.25 nM; in experiment [2] (read-out: LE_1a (EC50, range)), less than 5.46 nM.
As for `C[C@H]1CC/C=C\[C@@H]2C[C@@]2(C(=O)NS(=O)(=O)C2CC2)NC(=O)[C@@H]2C[C@@H](Oc3nccc4c5c(ccc34)N(C)CCO5)CN2C(=O)[C@@H](NC(=O)O[C@@H]2C[C@@H]3C[C@@H]3C2)[C@H](C)C1` [Compound 5291, (1R,3r,5 S)-bicyclo[3.1.0]hexan-3-yl((2R,6S,7R,9S,13aS,14aR,16aS,Z)-14a-((cyclopropylsulfonyl)carbamoyl)-7,9-dimethyl-2-((4-methyl-3,4-dihydro-2H-[1,4]oxazino[2,3-f]isoquinolin-7-yl)oxy)-5,16-dioxo-1,2,3,5,6,7,8,9,10,11,13a,14,14a,15,16,16a-hexadecahydrocyclopropa[e]pyrrolo[1,2-a][1,4]diazacyclopentadecin-6-yl)carbamate], the EC50 is less than 5.46 nM in experiment [1] (read-out: LE_1b (EC50, range)) and less than 5.46 nM in experiment [2] (read-out: LE_1a (EC50, range)).
Take `C[C@@H]1CC/C=C\[C@@H]2C[C@@]2(C(=O)NS(=O)(=O)C2CC2)NC(=O)[C@@H]2C[C@@H](Oc3nccc4c5c(ccc34)N(C)CCO5)CN2C(=O)[C@@H](NC(=O)O[C@@H]2C[C@@H]3C[C@@H]3C2)[C@H](C)C1` [Compound 5292, (1R,3r,5S)-bicyclo[3.1.0]hexan-3-yl((2R,6S,7R,9R,13aS,14aR,16aS,Z)-14a-((cyclopropylsulfonyl)carbamoyl)-7,9-dimethyl-2-((4-methyl-3,4-dihydro-2H-[1,4]oxazino[2,3-f]isoquinolin-7-yl)oxy)-5,16-dioxo-1,2,3,5,6,7,8,9,10,11,13a,14,14a,15,16,16a-hexadecahydrocyclopropa[e]pyrrolo[1,2-a][1,4]diazacyclopentadecin-6-yl)carbamate]: the EC50 in experiment [1] (read-out: LE_1b (EC50, range)) is less than 5.46 nM; in experiment [2] (read-out: LE_1a (EC50, range)), less than 5.46 nM.
Regarding `C[C@H]1CC/C=C\[C@@H]2C[C@@]2(C(=O)NS(=O)(=O)C2(C)CC2)NC(=O)[C@@H]2C[C@@H](Oc3nccc4c5c(ccc34)N(C)CCO5)CN2C(=O)[C@@H](NC(=O)OC(C)(C)C)[C@H](C)C1` [Compound 5293, tert-butyl ((2R,6S,7R,9S,13aS,14aR,16aS,Z)-7,9-dimethyl-2-((4-methyl-3,4-dihydro-2H-[1,4]oxazino[2,3-f]isoquinolin-7-yl)oxy)-14a-(((1-methylcyclopropyl)sulfonyl)carbamoyl)-5,16-dioxo-1,2,3,5,6,7,8,9,10,11,13a,14,14a,15,16,16a-hexadecahydrocyclopropa[e]pyrrolo[1,2-a][1,4]diazacyclopentadecin-6-yl)carbamate], the EC50 in experiment [1] (read-out: LE_1b (EC50, range)) was less than 5.46 nM; in experiment [2] (read-out: LE_1a (EC50, range)), 4.82 to 103 nM.

A word on the EC50: it is the concentration giving half of the maximal effect.
